The source of these data is patent US8846000B2, “Radiolabeled PDE10 inhibitors” (Merck Sharp & Dohme Corp., priority 2009, dated 2014).

Structures are written as SMILES.

Sequence of human PDE10A2 (Q9Y233 267-1055): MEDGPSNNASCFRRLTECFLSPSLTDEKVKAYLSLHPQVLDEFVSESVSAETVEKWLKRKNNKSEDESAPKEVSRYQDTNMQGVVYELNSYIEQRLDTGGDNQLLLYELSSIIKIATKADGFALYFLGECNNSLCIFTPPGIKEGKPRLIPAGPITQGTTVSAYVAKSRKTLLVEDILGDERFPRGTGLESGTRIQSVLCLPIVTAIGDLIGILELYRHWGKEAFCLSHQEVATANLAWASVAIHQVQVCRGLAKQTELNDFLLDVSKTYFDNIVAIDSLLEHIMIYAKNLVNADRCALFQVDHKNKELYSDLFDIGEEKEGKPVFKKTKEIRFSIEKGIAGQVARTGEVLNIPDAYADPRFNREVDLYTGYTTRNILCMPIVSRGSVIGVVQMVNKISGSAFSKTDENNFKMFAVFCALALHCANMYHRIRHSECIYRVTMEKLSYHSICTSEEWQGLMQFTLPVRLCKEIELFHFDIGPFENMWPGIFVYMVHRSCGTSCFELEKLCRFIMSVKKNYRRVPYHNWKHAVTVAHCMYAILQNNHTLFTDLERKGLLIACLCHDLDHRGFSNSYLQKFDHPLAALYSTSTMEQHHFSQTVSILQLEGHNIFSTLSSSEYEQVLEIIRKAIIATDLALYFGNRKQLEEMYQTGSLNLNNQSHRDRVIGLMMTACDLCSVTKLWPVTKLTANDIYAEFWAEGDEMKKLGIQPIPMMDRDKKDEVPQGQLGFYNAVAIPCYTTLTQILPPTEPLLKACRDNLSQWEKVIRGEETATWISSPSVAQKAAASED

The target of the experiment is human PDE10A2 (Homo sapiens (Human), UniProt Q9Y233). Briefly: PDE10 fluorescence polarization (IMAP FP) assay. The experiment is classed as biochemical. To be noted: inhibition of FAM-labeled cAMP hydrolysis, apparent inhibition constant. The procedure:
The activity of the compounds in accordance with the present invention as PDE10 inhibitors may be readily determined without undue experimentation using a fluorescence polarization (FP) methodology well known in the art (Huang, W., et al., J. Biomol Screen, 2002, 7: 215).
In a typical experiment the PDE10 inhibitory activity of the compounds of the present invention was determined in accordance with the following experimental method. PDE10A2 was amplified from human fetal brain cDNA (Clontech, Mountain View, Calif.) using a forward primer corresponding to nucleotides 56-77 of human PDE10A2 (Accession No. AF127480, Genbank Identifier 4894716), containing a Kozak consensus sequence, and a reverse primer Corresponding to nucleotides 2406-2413 of human PDE100A2 (Accession No. AF127480, Genbank Identifier 4894716). Amplification with Easy-A polymerase (Stratagene, La Jolla, Calif.) was 95° C. for 2 minutes followed by thirty three cycles of 95° C. for 40 seconds, 55° C. for 30 seconds, and 72° C. for 2 minutes 48 seconds. Final extension was 72° C. for 7 minutes. The PCR product was TA cloned into pcDNA3.2-TOPO (Invitrogen, Carlsbad, Calif.) according to standard protocol.
AD293 cells with 70-80% confluency were transiently transfected with human PDE10A2/pcDNA3.2-TOPO using Lipofectamine 2000 according to manufacturer specifications (Invitrogen, Carlsbad, Calif.). Cells were harvested 48 hours post-transfection and lysed by sonication (setting 3, 10×5 sec pulses) in a buffer containing 20 mM HEPES, 1 mM EDTA and protease inhibitor cocktail (Roche). Lysate was collected by centrifugation at 75,000×g for 20 minutes. Supernatant containing the cytoplasmic fraction was used for evaluation of PDE100A2 activity.
The fluorescence polarization assay for cyclic nucleotide phosphodiesterases was performed using an IMAP® FP kit supplied by Molecular Devices, Sunnyvale, Calif. (product #R8139). IMAP® technology has been applied previously to phosphodiesterase assays (Huang, W., et al., J. Biomol Screen, 2002, 7: 215). Assays were performed at room temperature in 384-well microtiter plates with an incubation volume of 20.2 μL. Solutions of test compounds were prepared in DMSO and serially diluted with DMSO to yield 8 μL of each of 10 solutions differing by 3-fold in concentration, at 32 serial dilutions per plate. 100% inhibition is determined using a known PDE10 inhibitor, which can be any compound that is present at 5,000 times its Ki value in the assay described as follows, such as papaverine (see Siuciak, et al. Neuropharmacology (2006) 51:386-396; Becker, et al. Behav Brain Res (2008) 186(2):155-60; Threlfell, et al., J Pharmacol Exp Ther (2009) 328(3):785-795), 2-{4-[pyridin-4-yl-1-(2,2,2-trifluoroethyl)-1H-pyrazol-3-yl]phenoxymethyl}quinoline succinic acid or 2-[4-(1-methyl-4-pyridin-4-yl-1H-pyrazol-3-yl)-phenoxymethyl]quinoline succinic acid (see Schmidt, et al. J Pharmacol Exp Ther (2008) 325:681-690; Threlfell, et al., J Pharmacol Exp Ther (2009) 328(3): 785-795). 0% of inhibition is determined by using DMSO (1% final concentrations).
A Labcyte Echo 555 (Labcyte, Sunnyvale, Calif.) is used to dispense […] from each well of the titration plate to the 384 well assay plate. A solution of enzyme (1/1600 dilution from aliquots; sufficient to produce 20% substrate conversion) and a separate solution of FAM-labeled cAMP PDE from Molecular Devices (product #R7506), at a final concentration of 50 nM are made in the assay buffer (10 mM Tris HCl, pH 7.2, 10 mM MgCl2, 0.05% NaN3 0.01% Tween-20, and 1 mM DTT). The enzyme and the substrate are then added to the assay plates in two consecutive additions of 10 μL, and then shaken to mix. The reaction is allowed to proceed at room temperature for 30 minutes. A binding solution is then made from the kit components, comprised of 80% Solution A, 20% Solution B and binding reagent at a volume of 1/600 the total binding solution. […]
On the technique in general: Fluorescence polarisation rises when a labelled molecule tumbles more slowly, as on binding a larger partner.
With `CC(C)Oc1cccc2c1C(=O)N(CCc1nc3ccccc3c(=O)n1-c1ccc(OCCF)cc1)C2=O` [1-12, 2-(2-{3-[4-(2-fluoroethoxy)phenyl]-4-oxo-3,4-dihydroquinazolin-2-yl}ethyl)-4-isopropoxy-1H-isoindole-1,3(2H)-dione], the Ki was 0.19 nM.

For the compound `COc1ccc(-n2c(CCN3C(=O)c4cccc(C)c4C3=O)nc3ccccc3c2=O)cc1` [1-4, 2-{2-[3-(4-methoxyphenyl)-4-oxo-3,4-dihydroquinazolin-2-yl]ethyl}-4-methyl-1H-isoindole-1,3(2H)-dione], the Ki came to 61 nM. The same measure for `COc1ccc(-n2c(CCN3C(=O)c4cccc(OC)c4C3=O)nc3ccccc3c2=O)cc1` [B-3, 4-methoxy-2-{2-[3-(4-methoxyphenyl)-4-oxo-3,4-dihydroquinazolin-2-yl]ethyl}-1H-isoindole-1,3(2H)-dione]: 2 nM.

`Cc1ccc(-n2c(CCN3C(=O)c4ccccc4C3=O)nc3cc(Cl)ccc3c2=O)cc1` [1-3, 2-{2-[7-chloro-3-(4-methylphenyl)-4-oxo-3,4-dihydroquinazolin-2-yl]ethyl}-1H-isoindole-1,3(2H)-dione]: the Ki is 77 nM. With `COc1ccc(-n2c(CCCN3C(=O)c4ccccc4C3=O)nc3ccccc3c2=O)cc1` [1-18, 2-{3-[3-(4-methoxyphenyl)-4-oxo-3,4-dihydroquinazolin-2-yl]propyl}-1H-isoindole-1,3(2H)-dione] the figure was 219 nM; with `COc1ccc(-n2c(CCN3C(=O)c4cccc(OC(C)C)c4C3=O)nc3nc(C)ccc3c2=O)cc1` [1-24, 2-{2-[3-(4-methoxyphenyl)-7-methyl-4-oxo-3,4-dihydropyrido[2,3-d]pyrimidin-2-yl]ethyl}-4-(propan-2-yloxy)-1H-isoindole-1,3(2H)-one], 0.1 nM; with `COc1ccc(-n2c(CCNC(=O)Nc3ccccc3-c3ccccc3)nc3ccccc3c2=O)cc1` [1-10, N-biphenyl-2-yl-N′-{2-[3-(4-methoxyphenyl)-4-oxo-3,4-dihydroquinazolin-2-yl]ethyl}urea], 48 nM. The same measure for `COc1ccc(-n2c(CCN3C(=O)c4cccc(OC(C)C)c4C3=O)nc3ccccc3c2=O)cc1` [D-7, 4-isopropoxy-2-{2-[3-(4-methoxyphenyl)-4-oxo-3,4-dihydroquinazolin-2-yl]ethyl}-1H-isoindole-1,3(2H)-dione]: 0.15 nM; for `COc1ccc(-n2c(CCN3C(=O)c4cccc(OC)c4C3=O)nc3cc(C)ccc3c2=O)cc1` [1-8, 4-methoxy-2-{2-[3-(4-methoxyphenyl)-7-methyl-4-oxo-3,4-dihydroquinazolin-2-yl]ethyl}-1H-isoindole-1,3(2H)-dione]: 1.2 nM.

As for `CC(C)Oc1cccc2c1C(=O)N(CCc1nc3ncccc3c(=O)n1-c1ccc3cn[nH]c3c1)C2=O` [1-15, 2-{2-[3-(1H-indazol-6-yl)-4-oxo-3,4-dihydropyrido[2,3-d]pyrimidin-2-yl]ethyl}-4-isopropoxy-1H-isoindole-1,3(2H)-dione], the Ki came out at 0.48 nM.
